Test systems include DLD-1; DMS-114; DMS-273; HOP-18; KM-20L2; LXFL 529; XF498; RXF 631; BT-549.
Common to all, as to assay: growth of human tumour cells (NCI), 48 h

The structures appear in SMILES notation.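 How tested: cells in 96-well plates exposed to compound for 48 hours at five concentrations. GI50: concentration for 50% inhibition of growth.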 The source made the active and inactive calls. No stated cut-off is given here; in the data, active = GI50 up to about 1.1 µM and inactive = higher.

On to `COc1cc(CC2c3cc(OC)c(OC)cc3CCN2C)c(Oc2cc3c(cc2OC)-c2c(OC)c(OC)c(OC)c4c2C(C3)N(C)CC4)cc1OC` (stereo not drawn), for which the GI50 in the assay on DLD-1 was 15.5 µM (inactive); in the assay with DMS-114, 12.1 µM (inactive); in the assay with DMS-273, 12.5 µM (inactive); with HOP-18 it was 16.4 µM (inactive); with KM-20L2, 5.93 µM (inactive); in the assay with LXFL 529, 13.7 µM (inactive). Moreover, in the assay on XF498, the GI50 was 13 µM (inactive).
For the compound `COc1ccc(-c2cc(O)c3cc4c(cc3n2)OCO4)c(OC)c1OC`, the GI50 is > 100 µM (inactive) in the assay on DLD-1; 29.4 µM (inactive) in the assay with DMS-114; 38.2 µM (inactive) with DMS-273; 96.6 µM (inactive) with HOP-18; > 100 µM (inactive) in the assay with KM-20L2; > 100 µM (inactive) in the assay on LXFL 529. Also, the GI50 in the assay on XF498 is 66.5 µM (inactive).
As to `COc1ccc2c(c1O)C(=O)C(CCC(=O)O)CC2` (stereo not drawn), the GI50 in the assay on DLD-1, with DMS-114, in the assay with DMS-273, in the assay with HOP-18, in the assay on KM-20L2 and in the assay on LXFL 529 was > 100 µM (inactive) in each case. Also, the GI50 in the assay with RXF 631 and in the assay with XF498 was > 100 µM (inactive) each time.
As to `COC(=O)C1=C(O)c2cc(OC)c(OC)c(OC)c2[C@H](c2cc(OC)c(OC)c(OC)c2)C1C(=O)OC` (stereo partly drawn), the GI50 was 45.1 µM (inactive) in the assay on DLD-1; 30.6 µM (inactive) in the assay with DMS-114; 15.8 µM (inactive) in the assay with DMS-273; 18.2 µM (inactive) in the assay on KM-20L2; 31.1 µM (inactive) in the assay with LXFL 529; 41.7 µM (inactive) in the assay on RXF 631. The GI50 with XF498 is 51.8 µM (inactive).
For the compound `O=C(NCCc1ccccc1)C1C(=O)C(=O)N(CCc2ccccc2)C1=O` (stereo not drawn), the GI50 in the assay on DLD-1, in the assay on DMS-273, in the assay with KM-20L2, in the assay with LXFL 529, in the assay on RXF 631 and in the assay with XF498 was > 100 µM (inactive) each time.
Regarding `C/C=C/C(=O)Oc1cccc2cccnc12`, the GI50 in the assay with DLD-1 is 4.5 µM (inactive); in the assay with DMS-114 it was 4.22 µM (inactive); with DMS-273, 14.6 µM (inactive); in the assay on HOP-18 it was 24.5 µM (inactive); in the assay on KM-20L2 it was 8.07 µM (inactive); in the assay with LXFL 529 it was 4.21 µM (inactive). Besides, the GI50 with XF498 is 8.41 µM (inactive).
Turning to `O=P(Nc1ccccc1)(Oc1ccccc1)N(CCCl)CCCl` (stereo not drawn), the GI50 in the assay on DLD-1 is > 100 µM (inactive); in the assay on DMS-114 it was 60.1 µM (inactive); with DMS-273, > 100 µM (inactive); with HOP-18, > 100 µM (inactive); with KM-20L2 it was > 100 µM (inactive); with RXF 631, > 100 µM (inactive).
Consider `CCNC(=O)CCN(C(=O)O)S(=O)(=O)c1ccc(NC(=O)c2ccccc2)cc1`, for which the GI50 in the assay on DLD-1 was > 100 µM (inactive); with DMS-114, > 100 µM (inactive); in the assay on DMS-273 it was 23.8 µM (inactive); in the assay with HOP-18, > 100 µM (inactive); with KM-20L2, > 100 µM (inactive); in the assay on LXFL 529, > 100 µM (inactive). In addition, in the assay with XF498, the GI50 is > 100 µM (inactive).
Take `COc1ccc2c(c1)c1c(C)c3cnccc3c(C)c1n2CCCN`: the GI50 in the assay on BT-549 is 1.29 µM (inactive); in the assay with DLD-1, 0.0853 µM (active); in the assay on DMS-114, 0.273 µM (active); in the assay with DMS-273, 0.1 µM (active); in the assay on HOP-18, 0.42 µM (active); with KM-20L2, 0.119 µM (active). In addition, the GI50 in the assay with XF498 is 0.422 µM (active).
With `COc1ccc2oc(-c3ccncc3)cc(=O)c2c1`, the GI50 was > 100 µM (inactive) in the assay with DLD-1; > 100 µM (inactive) in the assay with DMS-114; 62.8 µM (inactive) with DMS-273; > 100 µM (inactive) with LXFL 529; 40.5 µM (inactive) in the assay on RXF 631; > 100 µM (inactive) in the assay on XF498.

Values taken from ChEMBL document CHEMBL1201862, “PubChem BioAssay data set” (2004).
